Data published in patent US20110086388A1, “CHAPERONE-ASSISTED PROTEIN EXPRESSION AND METHODS OF USE” (Duke University, priority 2009, published 2011).

Tests used:
[1] = system: Actinoplanes ATCC 33076 Ramo16, NAD dependent reductase (native protein, no fusion tag); test: Ramo16 activity assay (continuous spectrophotometric, decrease in NADH absorbance at 340 nm); assay type: biochemical; settings: pseudo-substrate acetoacetyl-CoA varied 0 to 5 mM; 250 μM NADH fixed; 10 μM Ramo16; 50 mM HEPES, pH 7.6, 100 mM NaCl; 25° C.
Protocol: FIG. 8 is a kinetic profile of Ramo16 (10 μM) with varied acetoacetyl-CoA (0 to 5 mM) and fixed NADH (250 μM).
Ramo16, the NAD dependent reductase, was expressed natively in autoinduction media to prevent the formation of insoluble aggregates. Expression in a His6-tagged expression vector led to protein instability and ultimately precipitation.
Cloning and Purification of Ramo16: The ramo16 gene was obtained by PCR amplification from cosmid DNA (OO8CK) from Actinoplanes ATCC 33076 using Herculase Hot Start Polymerase with the following primers: the C-terminal his-tag were Ramo16C-F (5′-GGGAATTCCATATGCGCTTGACCGGCAAGACCCCG-3′), Ramo16C-R (5′-CCCAAGCTTGCGCGTGGTGAATCCGCCGTCGAC-3′, and the N-terminal his-tag were Ramo16N-F (5′-TATACCATGGCTCGCTTGACCGGCAAGAC-3′). and Ramo16N-R (5′-TATAGGATCCTCAGCGCGTGGTGAATCCG-3′). The amplified gene products were cloned into the Zero Blunt Cloning Vector and sequenced. […] Fractions were analyzed by SDS-PAGE and the band corresponding to Ramo16 was excised and the identity of the protein confirmed by Q-TOF. […]
Ramo 16 Activity Assay: Initial rates of Ramo16 were determined by monitoring the decrease in absorbance of NADH at 340 nm at 25° C. The 100 μL reactions were monitored in half-area clear bottom Corning plates using a 96 well plate SpectraMax Molecular Devices spectrophotometer. […]

[2] = system: vancomycin-resistant Enterococcus faecium (VRE); settings: cited from earlier work
[3] = system: methicillin-resistant Staphylococcus aureus (MRSA); settings: cited from earlier work

| Molecule | Km [1] [µM] | kcat [1] [s⁻¹] | effectiveness against VRE [2] | effectiveness against MRSA [3] |
| --- | --- | --- | --- | --- |
| CC(=O)CC(=O)SCCNC(=O)CCNC(=O)[C@H](O)C(C)(C)COP(=O)(O)OP(=O)(O)OC[C@H]1O[C@@H](n2cnc3c(N)ncnc32)[C@H](O)[C@@H]1OP(=O)(O)O [acetoacetyl-Coenzyme A] | 2350 ± 390 | 15.7 ± 1.2 | – | – |
| ramoplanin A2 | – | – | highly effective | highly effective |
